# pIC50: −log10 of the molar value. Read-outs that look alike come from different tables or passages of the source. Residues, ends and D or L forms follow the SMILES beside them.
# Experiments:
# [1] = biological target: T1, FL_Reg1 (full-length human Regnase-1) phosphorylation by TBK1 (Homo sapiens, UniProt Q5D1E8); assay: Regnase-1 phosphorylation inhibition by compounds (AlphaScreen), TBK1, full-length Regnase-1; type: biochemical
# T1 construct: made in house; host or cells: Expi293 cells
# T1 sequence (Q5D1E8 1-599): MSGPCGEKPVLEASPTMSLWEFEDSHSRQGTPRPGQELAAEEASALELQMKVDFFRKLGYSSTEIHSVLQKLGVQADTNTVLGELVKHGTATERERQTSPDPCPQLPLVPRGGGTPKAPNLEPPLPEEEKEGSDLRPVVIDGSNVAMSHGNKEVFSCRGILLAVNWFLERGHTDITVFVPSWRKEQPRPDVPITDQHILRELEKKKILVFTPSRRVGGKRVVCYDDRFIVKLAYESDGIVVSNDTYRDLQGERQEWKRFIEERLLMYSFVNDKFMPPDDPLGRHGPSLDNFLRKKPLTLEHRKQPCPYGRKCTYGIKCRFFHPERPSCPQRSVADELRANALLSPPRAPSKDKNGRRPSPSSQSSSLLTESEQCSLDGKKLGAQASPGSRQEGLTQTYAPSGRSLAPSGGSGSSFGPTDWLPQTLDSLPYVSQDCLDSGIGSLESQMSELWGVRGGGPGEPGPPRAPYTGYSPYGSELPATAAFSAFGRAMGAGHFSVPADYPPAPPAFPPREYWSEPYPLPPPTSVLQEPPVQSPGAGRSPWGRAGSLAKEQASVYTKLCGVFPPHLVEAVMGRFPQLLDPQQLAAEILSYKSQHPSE
# Procedure, shortened: (§1)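 FLAG/BirA-tagged human Regnase-1 constructs (full-length, 1–546 or 301–599), expressed in Expi293 cells, were used at 2 nM with compound and phosphorylated by IKKβ or TBK1 with 10 μM ATP, DTT, vanadate and MnCl2 for 2 h at room temperature. Phospho-Regnase-1 was read by AlphaScreen; IC50 came from % inhibition curves normalised to DMSO and Regnase-1-alone signals.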
# [2] = biological target: T2, FL_Reg1 (full-length human Regnase-1) phosphorylation by IKKβ (Homo sapiens, UniProt Q5D1E8); assay: Regnase-1 phosphorylation inhibition by compounds (AlphaScreen), IKKβ, full-length Regnase-1; type: biochemical
# T2 construct: made in house; host or cells: Expi293 cells
# T2 sequence (Q5D1E8 1-599): T1 sequence (Q5D1E8 1-599)
# Procedure, shortened: as §1
# [3] = biological target: T3, binding between TBK1 and full-length Regnase-1 (FL_Reg1) (Homo sapiens, UniProt Q5D1E8); assay: Inhibition of kinase-Regnase-1 binding by the compounds (AlphaScreen), TBK1
# T3 construct: made in house; host or cells: Expi293 cells
# T3 sequence (Q5D1E8 1-599): T1 sequence (Q5D1E8 1-599)
# Procedure, shortened: (§2)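 Read-out was AlphaScreen luminescence using anti-FLAG acceptor and glutathione donor beads, with Regnase-1 alone set as 100% and DMSO as 0% inhibition to fit IC50. Compound was premixed with 2.5 nM full-length human Regnase-1 (Expi293-expressed, FLAG/BirA-tagged). 2.5 nM TBK1 or IKKβ was then added for 2 h at room temperature.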
# [4] = biological target: T4, binding between IKKβ and full-length Regnase-1 (FL_Reg1) (Homo sapiens, UniProt Q5D1E8); assay: Inhibition of kinase-Regnase-1 binding by the compounds (AlphaScreen), IKKβ
# T4 construct: made in house; host or cells: Expi293 cells
# T4 sequence (Q5D1E8 1-599): T1 sequence (Q5D1E8 1-599)
# Procedure, shortened: as §2
# [5] = Table 13, phosphorylation by TBK1, read-out: Phosphorylation inhibition FL_Reg1, 50% inhibition concentration (TBK1)
# [6] = Table 14, phosphorylation by IKKβ, read-out: Phosphorylation inhibition FL_Reg1, 50% inhibition concentration (IKKβ)
# [7] = Table 13, binding between TBK1 and Regnase-1, read-out: Binding inhibition FL_Reg1, 50% inhibition concentration (TBK1)
# [8] = Table 14, binding between IKKβ and Regnase-1, read-out: Binding inhibition FL_Reg1, 50% inhibition concentration (IKKβ)
# [9] = Table 11, 2 nM Regnase-1, AlphaScreen, read-out: 50% inhibition concentration, Regnase-1 phosphorylation, FL_Reg1, TBK1
# [10] = Table 11, 2 nM Regnase-1, AlphaScreen, read-out: 50% inhibition concentration, Regnase-1 phosphorylation, FL_Reg1, IKKβ
# [11] = Table 12, 2.5 nM Regnase-1, 2.5 nM TBK1, AlphaScreen, read-out: 50% inhibition concentration, binding between Regnase-1 and TBK1, FL_Reg1
# [12] = Table 12, 2.5 nM Regnase-1, 2.5 nM IKKβ, AlphaScreen, read-out: 50% inhibition concentration, binding between Regnase-1 and IKKβ, FL_Reg1
"pIC50 [1, 5]","pIC50 [2, 6]","pIC50 [3, 7]","pIC50 [4, 8]",SMILES,"pIC50 [1, 9]","pIC50 [2, 10]","pIC50 [3, 11]","pIC50 [4, 12]"
4.41,4.61,4.32,< 4.21,"CC[C@H](C)[C@@H]1NC(=O)[C@H](Cc2c[nH]c3ccccc23)NC(=O)[C@@H](Cc2ccccc2)NC(=O)[C@H](CCCCN)NC(=O)[C@H](C)N(C)C(=O)C[C@@H](C(=O)N2CCCC2)NC(=O)[C@H](CCC(=O)O)NC(=O)[C@H](Cc2ccccc2)NC(=O)[C@H](CO)NC(=O)[C@H](Cc2c[nH]cn2)NC(=O)[C@H](Cc2c[nH]cn2)NC1=O [PP20] (HELM PEPTIDE1{[meA].K.[dF].W.I.H.H.S.F.E.D.[C1CCN([*:1])C1]}$PEPTIDE1,PEPTIDE1,1:R1-11:R3$$$V2.0)",–,–,–,–
6.22,6.40,> 7.22,> 7.22,"CC[C@H](C)[C@@H]1NC(=O)[C@H](CC(=O)O)NC(=O)[C@H](C)N(C)C(=O)C[C@@H](C(=O)N2CCCC2)NC(=O)[C@H](Cc2ccc(O)cc2)NC(=O)[C@H](CC(=O)O)NC(=O)[C@H](Cc2c[nH]c3ccccc23)NC(=O)[C@H](Cc2ccc(O)cc2)NC(=O)[C@H](CC(=O)O)NC(=O)[C@H](Cc2ccccc2)NC(=O)[C@H](Cc2c[nH]c3ccccc23)NC1=O [PP18] (HELM PEPTIDE1{[meA].D.I.W.F.D.Y.W.D.Y.D.[C1CCN([*:1])C1]}$PEPTIDE1,PEPTIDE1,1:R1-11:R3$$$V2.0)",–,–,–,–
5.07,5.25,4.86,4.47,"CC[C@H](C)[C@@H]1NC(=O)[C@H](CC(N)=O)NC(=O)[C@H]([C@@H](C)CC)NC(=O)[C@H](Cc2ccc(O)cc2)NC(=O)[C@H](Cc2c[nH]c3ccccc23)NC(=O)[C@H](CO)NC(=O)[C@H](CC(N)=O)NC(=O)[C@H](C)N(C)C(=O)C[C@@H](C(=O)N2CCCC2)NC(=O)[C@H](Cc2c[nH]cn2)NC(=O)CNC(=O)[C@H](Cc2c[nH]c3ccccc23)NC1=O [PP15] (HELM PEPTIDE1{[meA].N.S.W.Y.I.N.I.W.G.H.D.[C1CCN([*:1])C1]}$PEPTIDE1,PEPTIDE1,1:R1-12:R3$$$V2.0)",–,–,–,–
4.54,4.65,4.22,< 4.21,"CC[C@H](C)[C@@H]1NC(=O)[C@H](Cc2c[nH]c3ccccc23)NC(=O)[C@H](CCCNC(=N)N)NC(=O)[C@H](Cc2ccccc2)NC(=O)[C@H](CCC(N)=O)NC(=O)[C@H](C)NC(=O)[C@H](Cc2ccccc2)NC(=O)[C@H](CCCCN)NC(=O)[C@H](C)N(C)C(=O)C[C@@H](C(=O)N2CCCC2)NC(=O)[C@@H]2CCCN2C(=O)[C@H](Cc2ccc(O)cc2)NC1=O [PP11] (HELM PEPTIDE1{[meA].K.F.A.Q.F.R.W.I.Y.P.D.[C1CCN([*:1])C1]}$PEPTIDE1,PEPTIDE1,1:R1-12:R3$$$V2.0)",–,–,–,–
–,–,< 4.21,< 4.21,"CC(C)[C@@H]1NC(=O)[C@H](CCCCN)NC(=O)[C@H](Cc2ccc(O)cc2)NC(=O)[C@H](Cc2c[nH]c3ccccc23)NC(=O)[C@H](CO)NC(=O)[C@H]([C@@H](C)O)NC(=O)[C@H](C)N(C)C(=O)C[C@@H](C(=O)N2CCCC2)NC(=O)[C@H](CCC(N)=O)NC(=O)CNC(=O)[C@H](Cc2c[nH]c3ccccc23)NC(=O)[C@H](CC(N)=O)NC1=O [PP1] (HELM PEPTIDE1{[meA].T.S.W.Y.K.V.N.W.G.Q.D.[C1CCN([*:1])C1]}$PEPTIDE1,PEPTIDE1,1:R1-12:R3$$$V2.0)",4.26,4.55,< 4.21,< 4.21
–,–,–,–,"CC[C@H](C)[C@@H]1NC(=O)[C@H](Cc2ccc(O)cc2)NC(=O)[C@H](C)N(C)C(=O)C[C@@H](C(=O)N2CCCC2)NC(=O)[C@H](CC(C)C)NC(=O)[C@H](CC(=O)O)NC(=O)CNC(=O)[C@H](Cc2ccccc2)NC(=O)[C@H](Cc2ccccc2)NC(=O)[C@H](CC(=O)O)NC(=O)[C@H](Cc2c[nH]c3ccccc23)NC1=O [PP4] (HELM PEPTIDE1{[meA].Y.I.W.D.F.F.G.D.L.D.[C1CCN([*:1])C1]}$PEPTIDE1,PEPTIDE1,1:R1-11:R3$$$V2.0)",4.21,4.71,4.61,4.32
4.90,5.17,< 4.21,< 4.21,"CC[C@H](C)[C@@H]1NC(=O)[C@H](Cc2c[nH]c3ccccc23)NC(=O)[C@H](CCC(N)=O)NC(=O)[C@H](Cc2ccc(O)cc2)NC(=O)[C@H](C(C)C)NC(=O)[C@H](C)NC(=O)[C@H](Cc2ccc(O)cc2)NC(=O)[C@H](CCCNC(=N)N)NC(=O)[C@H](C)N(C)C(=O)C[C@@H](C(=O)N2CCCC2)NC(=O)[C@@H]2CCCN2C(=O)[C@H](Cc2ccc(O)cc2)NC1=O [PP12] (HELM PEPTIDE1{[meA].R.Y.A.V.Y.Q.W.I.Y.P.D.[C1CCN([*:1])C1]}$PEPTIDE1,PEPTIDE1,1:R1-12:R3$$$V2.0)",–,–,–,–
4.28,4.69,4.69,< 4.21,"CC[C@H](C)[C@@H]1NC(=O)[C@H](CC(N)=O)NC(=O)[C@H](Cc2ccc(O)cc2)NC(=O)[C@H](Cc2c[nH]c3ccccc23)NC(=O)[C@H](CO)NC(=O)[C@H](CC(N)=O)NC(=O)[C@H](CO)NC(=O)[C@H](Cc2ccccc2)NC(=O)[C@H](CC(N)=O)NC(=O)[C@H](C)N(C)C(=O)C[C@@H](C(=O)N2CCCC2)NC(=O)[C@H](Cc2c[nH]c3ccccc23)NC1=O [PP16] (HELM PEPTIDE1{[meA].N.F.S.N.S.W.Y.N.I.W.D.[C1CCN([*:1])C1]}$PEPTIDE1,PEPTIDE1,1:R1-12:R3$$$V2.0)",–,–,–,–
5.43,5.27,5.62,5.24,"CC[C@H](C)[C@@H]1NC(=O)[C@H](CCCCN)NC(=O)[C@H](Cc2ccc(O)cc2)NC(=O)[C@H](Cc2ccccc2)NC(=O)[C@H](C(C)C)NC(=O)[C@H](C)N(C)C(=O)C[C@@H](C(=O)N2CCCC2)NC(=O)[C@H](Cc2c[nH]c3ccccc23)NC(=O)[C@H](CC(N)=O)NC(=O)[C@H](Cc2ccc(O)cc2)NC(=O)[C@H](Cc2c[nH]c3ccccc23)NC1=O [PP19] (HELM PEPTIDE1{[meA].V.F.Y.K.I.W.Y.N.W.D.[C1CCN([*:1])C1]}$PEPTIDE1,PEPTIDE1,1:R1-11:R3$$$V2.0)",–,–,–,–

# — patent publication US20250018014A1, “METHOD FOR TREATING AND/OR PREVENTING REGNASE-1-RELATED DISEASE” (OSAKA UNIVERSITY, priority 2018, published 2025)
